Test results taken from patent US10233206B2, “D-fagomine for the control of inflammatory processes related to an overactivation of the humoral immune response” (priority 2013, dated 2019).
Values joined by “and” are separate entries in the source; they are usually repeats but may differ in a detail not shown here. Equal values may be shown once. “Also recorded” adds a separate entry of the source.

Assays:
[1] = system: colon tissue; test: Colon viability (LDH release); assay type: cell-based, human
Procedure: (§1) Samples of macroscopically normal colonic mucosa were obtained at surgery from patients undergoing colectomy for colonic cancer. Areas free of disease were collected in ice-cold saline and transferred immediately to the Laboratory of the Digestive Research Unit of Hospital's Vail d'Hebron (Barcelona). After washing with saline, the mucosa was dissected from the muscularis layer and pieces between 25 and 30 mg were placed surface up in culture wells (15 mm diameter wells with 500 μm bottom mesh, Netwell culture systems, Costar, Cambridge, Mass.), and orientated so that the epithelial surface was upper-most. Filters were suspended over wells containing 1.5 ml of RPMI edium (CanSera, Rexdale, Ontario, Canada) supplemented with 10% foetal calf serum (FCS; Gibco-BRL, Eggenstein, Germany), glutamine 2 mM and antibiotics: 100 U/ml penicillin, 100 microg/ml streptomycin and 50 microg/ml gentamycin, (all from Normon, Madrid, Spain). This volume is just for maintaining the humidity of the surface but not for sinking beneath the surface.
(§2) Bacteria strain E. coli ([…]) and fagomine (50, 500 and 5000 μg/mL) were added carefully to the explants. After 4 h of culture of tissues with E. coli, supernatants were collected for measurement of E. coli recovery, release of TNF-α, LDH (viability) and pH. Moreover, the tissues were rinsed, homogenized and assayed for E. coli recovery and LDH (to study tissue viability).
To estimate tissue viability, we calculated LDH (lactate-dehydrogenase) activity release in the supernatant. This method was validated by Finnie (Gut 1995). The ratio of LDH activity in the supernatant over total LDH activity in tissue homogenates was calculated and used to estimate the percentage of viable tissue. Tissue samples were homogenized in Tris/HCl (100 mmol/L, pH 7.4) and supernatants were analysed for LDH using the spectrophotometric method. Tissue viability was assessed as the release of LDH per mg of tissue.

[2] = system: bacteria; details: Gomez L. et al.; Castillo J. A. et al.; cited from earlier work
[3] = system: TNF-α; test: TNF-α release into the supernatant of human colon mucosa organ culture with E. coli (ELISA); assay type: cell-based; details: for TNF-alfa (1.5 ml standarized 30 mg) / TNF-alfa/ml: individual samples, listed as Fag; for TNF-alfa (1.5 ml standarized 30 mg, Average): mean of 2 samples; for TNF-alfa/ml: supernatant after 4 h
Procedure: (§3) The aim of this investigation was to determine the effects “ex vivo” of D-fagomine on the adhesion of E. coli to human colon mucosal samples and their possible influence on the release of inflammatory mediators on a range of doses as an indication of the activation of the innate immune response.
(§4) The approach, included the incubation of an E. coli strain with mucosal colonic samples obtained by surgery. The intention was to preserve the whole structure of mucosal samples including multiple cell populations such as epithelial cells and immunocompetent cells (macrophages, dendritic cells, plasma cells and lymphocytes), all of them keeping their original structure and disposition for cell to cell interaction. In other words, the approach was intended for mimicking the “in vivo” conditions of the colon mucosa.
as §1
(§5) Biopsies were incubated at 37° C. in a 95% O2+5% CO2 atmosphere and stimulated during 1 h with PMA (phorbol-12-myristate-13-acetate) and lonomycin (100/1000 ng/mL), both available from Sigma.
(§6) Thereafter, medium was replaced by fresh RPMI 1640 medium (without glucose) supplemented with 10% FCS and sodium bicarbonate at 24 mmol/L.
as §2
Concentration of TNF-α in the supernatants was measured using a commercially available ELISA assay system for human citoquine TNF-α (Ready to Set, e-Bioscience). Cytokine concentration is expressed as pg (TNF-α) per 30 mg of tissue.

[4] = system: bacteria; details: WO2011117362; cited from earlier work
[5] = system: E. coli 434; test: Recovery of E. coli in tissue: ex vivo adhesion of E. coli to human colon mucosal samples (organ culture); assay type: cell-based; details: for E coli × 10 6 Recovery on tissue: 4 h culture with E. coli, individual samples 1 and 2; for E coli × 10 6 Standarized 30 mg, Average: mean of 2 samples; for E coli × 10 6 Standarized 30 mg: normalized to 30 mg tissue, individual samples; for E. coli recovery in tissue, Average % over control: control Ec = 100.0%
Procedure: as §3, §4
In the design of the study doses of 0, 50, 500 and 5000 μg/ml of D-fagomine were tested.
Pathogenic strains of E coli were used. The main differences of pathogenic strains of E coli vs. other non pathogenic are related to their capacity to avoid the immune system.
as §1, §5, §6, §2
The pathogenic E. coli reference strain (CECT 434, (Migula 1895) Castellani and Chalmers 1919) was provided by Dr. Maria Angeles Calvo (Microbiology Laboratory, Faculty of Veterinary, Autonomous University of Barcelona, Spain)
The day before of the experiment with tissue, the E. coli strain was inoculated in Luria Bertani broth (Pharmacy, Hospital Vail d'Hebron, Autonomous University of Barcelona, Spain) at 37° C. under aerobic conditions for 24 h. The day of the experiment bacteria were harvested in the stationary phase, cell counts in the bacterial suspension were estimated by optical density at 600 nm absorbance, and bacteria were added to the tissue-culture wells at the appropriate dilution.
In order to quantify only the adherent E. coli bacteria, at the end of the culture, tissues were recovered and rinsed with 2 ml of saline in an orbital mixer at low speed during 2 minutes. After rinsing, each tissue was homogenized in 1 ml of saline and dilutions were prepared to quantify the recovery of E. coli in solid agar selective media. […]

[6] = Gomez L. et al. Br. J. Nutr. 2012; cited from earlier work
[7] = Kim H. et al. 2005; cited from earlier work
[8] = D-fagomine 50 μg/ml with E. coli
[9] = D-fagomine 500 μg/ml with E. coli
[10] = D-fagomine 5000 μg/ml with E. coli
[11] = D-fagomine 50 μg/ml, listed as Fag
[12] = D-fagomine 500 μg/ml, listed as Fag

## OC[C@H]1NCC[C@@H](O)[C@@H]1O (stereo in doubt) [D-fagomine, (2R, 3R, 4R)-2-hydroxymethylpiperidine-3,4-diol]
[1]; E. coli + D-fagomine 50 μg/ml
  Viability LDH: 88.20%
[1]; E. coli + D-fagomine 500 μg/ml
  Viability LDH: 91.47%
[1]; E. coli + D-fagomine 5000 μg/ml
  Viability LDH: 83.88%
[1]; coculture with E. coli or fagomine
  Effect on viability of the tissue (in words): does not affect the viability of the tissue
[2]
  Antimicrobial activity (in words): do not show antimicrobial activity
[3]; 50 μg/mL versus 500 μg/mL
  TNF-alfa release at 50 μg/mL, times higher than at 500 μg/mL: 5 times
[3]; 50 μg/mL versus 5000 μg/mL
  TNF-alfa release at 50 μg/mL, times higher than at 5000 μg/mL: ~8 times
[3]; 50, 500 and 5000 μg/ml with E. coli
  Stimulation of TNF-alfa release (in words): capacity to stimulate the release of TNF-alfa and that the lower is the dose the more potent is such release; also recorded: stimulating the release of TNF-alfa either with respect to the control with E. coli or with respect to the control without E. coli
[3]; [8]
  TNF-alfa (1.5 ml standarized 30 mg): 145.4 pg (TNF-α) per 30 mg of tissue and 164.2 pg (TNF-α) per 30 mg of tissue
  TNF-alfa (1.5 ml standarized 30 mg, Average): 154.8 pg (TNF-α) per 30 mg of tissue
  TNF-alfa/ml: 106.2 mL⁻¹ and 98.8 mL⁻¹
[3]; [9]
  TNF-alfa (1.5 ml standarized 30 mg): 31.9 pg (TNF-α) per 30 mg of tissue and 28.6 pg (TNF-α) per 30 mg of tissue
  TNF-alfa (1.5 ml standarized 30 mg, Average): 30.3 pg (TNF-α) per 30 mg of tissue
  TNF-alfa/ml: 20.7 mL⁻¹ and 18.6 mL⁻¹
[3]; [10]
  TNF-alfa (1.5 ml standarized 30 mg): 8.2 pg (TNF-α) per 30 mg of tissue and 18.1 pg (TNF-α) per 30 mg of tissue
  TNF-alfa (1.5 ml standarized 30 mg, Average): 13.2 pg (TNF-α) per 30 mg of tissue
  TNF-alfa/ml: 13.8 mL⁻¹ and 5.7 mL⁻¹
[4]
  Bacterial adherence to mucosal surface (in words): inhibiting bacterial adherence to mucosal surface
[5]; 50, 500 and 5000 μg/ml
  Antiadherent effect against E. coli on colon mucosa (in words): antiadherent properties against E. coli in a dose dependent manner; also recorded: antiadherent effect against E. coli on the colon epithelium
[5]; [11]
  E coli × 10 6 Recovery on tissue: 4 × 10 6 and 4.4 × 10 6
  E coli × 10 6 Standarized 30 mg: 4.12 × 10 6 and 4.31 × 10 6
[5]; D-fagomine 50 μg/ml
  E coli × 10 6 Standarized 30 mg, Average: 4.22 × 10 6
  E. coli recovery in tissue, Average % over control: 56.6%
[5]; [12]
  E coli × 10 6 Recovery on tissue: 2.4 × 10 6 and 0.8 × 10 6
  E coli × 10 6 Standarized 30 mg: 2.21 × 10 6 and 0.9 × 10 6
[5]; D-fagomine 500 μg/ml
  E coli × 10 6 Standarized 30 mg, Average: 1.56 × 10 6
  E. coli recovery in tissue, Average % over control: 21.0%
[5]; D-fagomine 5000 μg/ml
  E coli × 10 6 Recovery on tissue: 1.6 × 10 6
  E coli × 10 6 Standarized 30 mg, Average: 1.47 × 10 6
[5]; D-fagomine 5000 μg/ml, listed as Fag
  E coli × 10 6 Standarized 30 mg: 1.4 × 10 6 and 1.55 × 10 6
[5]; D-fagomine 50 or 5000 μg/ml
  E. coli recovery in tissue, Average % over control: 19.8%
[6]
  Postprandial blood glucose level and insulin secretion (in words): decrease postprandrial blood glucose level without stimulating insulin secretion

## C[C@@H]1O[C@@H](OC[C@H]2O[C@@H](Oc3c(-c4ccc(O)c(O)c4)oc4cc(O)cc(O)c4c3=O)[C@H](O)[C@@H](O)[C@@H]2O)[C@H](O)[C@H](O)[C@H]1O [rutin]
[7]
  Stability and deglycosylation in the intestine after oral administration (in words): stable in the upper intestine, but rapidly deglycosylated to liberate the quercetin at the level of the colon
